Measurements published in patent US20100144733A1, “Compounds, compositions and methods comprising heteroaromatic derivatives” (Institute for OneWorld Health, priority 2008, published 2010).

Each compound was assayed against T1, CFTR (Homo sapiens, UniProt P13569) (assay: T84 assay (FLIPR membrane potential dye, forskolin/IBMX-stimulated CFTR channel activity)). Conditions: imidazole and triazole-containing compounds (Tables 13, 14, 14′), read-out: IC50 (μM) (T84 assay).
T1 construct: endogenous in cells; host or cells: T84 human colonic cells (ECACC)
Type: cell-based
How it was run: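 Fluorescence from a membrane potential dye in T84 monolayers (HBSS with 10 mM Hepes) is followed each second for 150 s. Cells are exposed to test compound during the 45 min dye loading, then challenged with forskolin (10 μM) and IBMX (100 μM) to open CFTR. Inhibitors suppress the depolarization-driven fluorescence increase.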

T1 sequence (P13569 whole entry): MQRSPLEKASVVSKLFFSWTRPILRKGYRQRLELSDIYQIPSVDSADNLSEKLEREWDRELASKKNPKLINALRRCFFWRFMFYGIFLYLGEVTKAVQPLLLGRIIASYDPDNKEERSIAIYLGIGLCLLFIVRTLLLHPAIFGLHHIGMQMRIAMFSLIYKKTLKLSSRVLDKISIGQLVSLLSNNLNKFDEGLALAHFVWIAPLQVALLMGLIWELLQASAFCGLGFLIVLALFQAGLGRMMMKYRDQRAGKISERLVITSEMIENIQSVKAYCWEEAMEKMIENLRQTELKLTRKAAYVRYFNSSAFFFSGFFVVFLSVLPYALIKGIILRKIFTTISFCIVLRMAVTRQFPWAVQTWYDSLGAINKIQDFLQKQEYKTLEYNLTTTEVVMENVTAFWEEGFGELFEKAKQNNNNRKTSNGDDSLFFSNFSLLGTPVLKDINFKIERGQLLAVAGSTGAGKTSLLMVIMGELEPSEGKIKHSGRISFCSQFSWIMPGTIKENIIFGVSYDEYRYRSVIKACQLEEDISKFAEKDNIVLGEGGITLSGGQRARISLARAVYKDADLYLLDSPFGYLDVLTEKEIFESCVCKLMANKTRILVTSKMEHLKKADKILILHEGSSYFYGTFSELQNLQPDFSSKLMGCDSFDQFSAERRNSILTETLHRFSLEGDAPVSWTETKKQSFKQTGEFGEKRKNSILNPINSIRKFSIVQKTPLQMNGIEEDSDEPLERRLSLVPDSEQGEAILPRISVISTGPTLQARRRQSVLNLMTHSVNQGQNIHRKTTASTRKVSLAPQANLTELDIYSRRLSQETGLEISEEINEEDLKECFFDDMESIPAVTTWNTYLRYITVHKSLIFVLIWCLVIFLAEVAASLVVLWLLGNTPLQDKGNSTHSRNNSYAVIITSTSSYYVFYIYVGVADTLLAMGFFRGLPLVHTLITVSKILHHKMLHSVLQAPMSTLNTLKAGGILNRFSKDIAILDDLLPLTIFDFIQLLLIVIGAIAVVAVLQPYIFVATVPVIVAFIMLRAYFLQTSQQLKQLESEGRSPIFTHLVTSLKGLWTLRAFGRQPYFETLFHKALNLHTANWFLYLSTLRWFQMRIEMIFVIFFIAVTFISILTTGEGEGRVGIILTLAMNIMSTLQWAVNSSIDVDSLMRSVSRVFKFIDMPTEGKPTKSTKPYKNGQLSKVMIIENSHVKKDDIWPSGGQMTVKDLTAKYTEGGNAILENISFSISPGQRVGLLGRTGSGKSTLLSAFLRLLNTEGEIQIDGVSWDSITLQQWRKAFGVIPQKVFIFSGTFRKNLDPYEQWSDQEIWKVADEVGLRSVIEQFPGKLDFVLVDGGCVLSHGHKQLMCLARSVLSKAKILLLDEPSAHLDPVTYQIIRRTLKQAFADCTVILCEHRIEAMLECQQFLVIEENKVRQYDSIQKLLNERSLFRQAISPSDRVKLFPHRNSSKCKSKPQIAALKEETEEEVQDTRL

Structure (SMILES) | IC50
C=CCN(Cc1ccc(C(C)C)cc1)C(=O)c1ncn(-c2cc(Cl)c(O)c(Cl)c2)n1 [101i, N-allyl-1-(3,5-dichloro-4-hydroxyphenyl)-N-(4-isopropylbenzyl)-1H-1,2,4-triazole-3-carboxamide] | 0.76 µM
COCCOCCOCCOCCN(Cc1ccc(Cl)c(Cl)c1)C(=O)c1ncn(-c2cc(Cl)c(O)c(Cl)c2)n1 [111i, 1-(3,5-dichloro-4-hydroxyphenyl)-N-(3,4-dichlorobenzyl)-N-(2,5,8,11-tetraoxatridecan-13-yl)-1H-1,2,4-triazole-3-carboxamide] | 9.17 µM
COCCOCCOCCN(Cc1cccc(OC(F)(F)F)c1)C(=O)c1ncn(-c2cc(Cl)c(O)c(Cl)c2)n1 [113i, 1-(3,5-dichloro-4-hydroxyphenyl)-N-(2-(2-(2-methoxyethoxy)ethoxy)ethyl)-N-(3-(trifluoromethoxy)benzyl)-1H-1,2,4-triazole-3-carboxamide] | 23.5 µM
COCCOCCOCCOCCN(Cc1cccc(OC(F)(F)F)c1)C(=O)c1ncn(-c2cc(Cl)c(O)c(Cl)c2)n1 [115i, 1-(3,5-dichloro-4-hydroxyphenyl)-N-(2,5,8,11-tetraoxatridecan-13-yl)-N-(3-(trifluoromethoxy)benzyl)-1H-1,2,4-triazole-3-carboxamide] | 2.8 µM
CC(C)(C)c1ccc(CN(CCOCCOCCOCCOCCOCCOCc2ccccc2)C(=O)c2ncn(-c3cc(Cl)c(O)c(Cl)c3)n2)cc1 [116i, N-(4-tert-butylbenzyl)-1-(3,5-dichloro-4-hydroxyphenyl)-N-(1-phenyl-2,5,8,11,14,17-hexaoxanonadecan-19-yl)-1H-1,2,4-triazole-3-carboxamide] | 2.8 µM
COCCOCCOCCOCCOCCOCCOCCOCCN(Cc1ccc(C(C)(C)C)cc1)C(=O)c1ncn(-c2cc(Cl)c(O)c(Cl)c2)n1 [117i, N-(4-tert-butylbenzyl)-1-(3,5-dichloro-4-hydroxyphenyl)-N-(2,5,8,11,14,17,20,23-octaoxapentacosan-25-yl)-1H-1,2,4-triazole-3-carboxamide] | 21.4 µM
COCCOCCOCCOCCOCCN(Cc1ccc(C(C)(C)C)cc1)C(=O)c1ncn(-c2cc(Cl)c(O)c(Cl)c2)n1 [118i, N-(4-tert-butylbenzyl)-1-(3,5-dichloro-4-hydroxyphenyl)-N-(2,5,8,11,14-pentaoxahexadecan-16-yl)-1H-1,2,4-triazole-3-carboxamide] | 17.3 µM
COCCOCCOCCOCCN(Cc1ccc(C(C)(C)C)cc1)C(=O)c1ncn(-c2cc(Cl)c(O)c(Cl)c2)n1 [120i, N-(4-tert-butylbenzyl)-1-(3,5-dichloro-4-hydroxyphenyl)-N-(2,5,8,11-tetraoxatridecan-13-yl)-1H-1,2,4-triazole-3-carboxamide] | 5.9 µM
COCCOCCOCCOCCOCCOCCOCCOCCON(Cc1ccc(Oc2ccccc2)cc1)C(=O)c1ncn(-c2cc(Cl)c(O)c(Cl)c2)n1 [121i, N-(2,5,8,11,14,17,20,23-octaoxapentacosan-25-yloxy)-1-(3,5-dichloro-4-hydroxyphenyl)-N-(4-phenoxybenzyl)-1H-1,2,4-triazole-3-carboxamide] | 12.5 µM
COCCOCCOCCOCCON(Cc1ccc(Oc2ccccc2)cc1)C(=O)c1ncn(-c2cc(Cl)c(O)c(Cl)c2)n1 [122i, N-(2,5,8,11-tetraoxatridecan-13-yloxy)-1-(3,5-dichloro-4-hydroxyphenyl)-N-(4-phenoxybenzyl)-1H-1,2,4-triazole-3-carboxamide] | 5.11 µM
COCCOCCOCCON(Cc1ccc(Oc2ccccc2)cc1)C(=O)c1ncn(-c2cc(Cl)c(O)c(Cl)c2)n1 [123i, 1-(3,5-dichloro-4-hydroxyphenyl)-N-(2-(2-(2-methoxyethoxy)ethoxy)ethoxy)-N-(4-phenoxybenzyl)-1H-1,2,4-triazole-3-carboxamide] | 8.44 µM

Same assay, conditions: oxadiazole-containing compounds (a series), average of at least 2 runs unless annotated n = 1, read-out: IC50

Structure (SMILES) | IC50
O=C(c1nc(-c2cc(Cl)c(O)c(Cl)c2)no1)N(Cc1cccc(C(F)(F)F)c1)Cc1cccc(C(F)(F)F)c1 [101a, 3-(3,5-dichloro-4-hydroxyphenyl)-N,N-bis(3-(trifluoromethyl)benzyl)-1,2,4-oxadiazole-5-carboxamide] | 6.71 µM
O=C(NCc1cccc(F)c1F)c1noc(-c2cc(Cl)c(O)c(Cl)c2)n1 [102a, 5-(3,5-dichloro-4-hydroxyphenyl)-N-(2,3-difluorobenzyl)-1,2,4-oxadiazole-3-carboxamide] | 10.1 µM
O=C(NCc1c(F)cccc1F)c1noc(-c2cc(Cl)c(O)c(Cl)c2)n1 [103a, 5-(3,5-dichloro-4-hydroxyphenyl)-N-(2,6-difluorobenzyl)-1,2,4-oxadiazole-3-carboxamide] | 9.64 µM
O=C(Nc1ccc(Oc2ccccc2)cc1)c1nc(-c2cc(Br)c(O)c(Br)c2)no1 [104a, 3-(3,5-dibromo-4-hydroxyphenyl)-N-(4-phenoxyphenyl)-1,2,4-oxadiazole-5-carboxamide] | 23 µM
CC(C)(C)CCNC(=O)c1nc(-c2cc(Br)c(O)c(Br)c2)no1 [105a, 3-(3,5-dibromo-4-hydroxyphenyl)-N-(3,3-dimethylbutyl)-1,2,4-oxadiazole-5-carboxamide] | 23.1 µM
CN(Cc1cccc(C(F)(F)F)c1)C(=O)c1noc(-c2cc(Cl)c(OCC(=O)O)c(Cl)c2)n1 [106a, 2-(2,6-dichloro-4-(3-(methyl(3-(trifluoromethyl)benzyl)carbamoyl)-1,2,4-oxadiazol-5-yl)phenoxy)acetic acid] | 24.6 µM
O=C(O)COc1c(Cl)cc(-c2nc(C(=O)NCc3ccc(Oc4ccccc4)cc3)no2)cc1Cl [107a, 2-(2,6-dichloro-4-(3-(4-phenoxybenzylcarbamoyl)-1,2,4-oxadiazol-5-yl)phenoxy)acetic acid] | 19.2 µM
CCCN(Cc1cccc(C(F)(F)F)c1)C(=O)c1nc(-c2cc(Cl)c(O)c(Cl)c2)no1 [108a, 3-(3,5-dichloro-4-hydroxyphenyl)-N-propyl-N-(3-(trifluoromethyl)benzyl)-1,2,4-oxadiazole-5-carboxamide] | 2.79 µM
C#CCN(Cc1cccc(C(F)(F)F)c1)C(=O)c1nc(-c2cc(Cl)c(O)c(Cl)c2)no1 [109a, 3-(3,5-dichloro-4-hydroxyphenyl)-N-(prop-2-ynyl)-N-(3-(trifluoromethyl)benzyl)-1,2,4-oxadiazole-5-carboxamide] | 5.31 µM
CCOCCN(Cc1cccc(C(F)(F)F)c1)C(=O)c1nc(-c2cc(Cl)c(O)c(Cl)c2)no1 [110a, 3-(3,5-dichloro-4-hydroxyphenyl)-N-(2-ethoxyethyl)-N-(3-(trifluoromethyl)benzyl)-1,2,4-oxadiazole-5-carboxamide] | 3.76 µM
COCCOCCN(Cc1cccc(C(F)(F)F)c1)C(=O)c1nc(-c2cc(Cl)c(O)c(Cl)c2)no1 [111a, 3-(3,5-dichloro-4-hydroxyphenyl)-N-(2-(2-methoxyethoxy)ethyl)-N-(3-(trifluoromethyl)benzyl)-1,2,4-oxadiazole-5-carboxamide] | 6.14 µM
O=C(NCc1cc(F)ccc1F)c1noc(-c2cc(Cl)c(O)c(Cl)c2)n1 [113a, 5-(3,5-dichloro-4-hydroxyphenyl)-N-(2,5-difluorobenzyl)-1,2,4-oxadiazole-3-carboxamide] | 15.7 µM
O=C(NCc1ccc(F)cc1F)c1noc(-c2cc(Cl)c(O)c(Cl)c2)n1 [114a, 5-(3,5-dichloro-4-hydroxyphenyl)-N-(2,4-difluorobenzyl)-1,2,4-oxadiazole-3-carboxamide] | 7.9 µM
O=C(NCc1ccc(F)cc1)c1noc(-c2cc(Cl)c(O)c(Cl)c2)n1 [115a, 5-(3,5-dichloro-4-hydroxyphenyl)-N-(4-fluorobenzyl)-1,2,4-oxadiazole-3-carboxamide] | 11.8 µM
O=C(NCc1cccc(F)c1)c1noc(-c2cc(Cl)c(O)c(Cl)c2)n1 [116a, 5-(3,5-dichloro-4-hydroxyphenyl)-N-(3-fluorobenzyl)-1,2,4-oxadiazole-3-carboxamide] | 18 µM
CN(Cc1ccc(F)c(F)c1)C(=O)c1noc(-c2cc(Cl)c(O)c(Cl)c2)n1 [117a, 5-(3,5-dichloro-4-hydroxyphenyl)-N-(3,4-difluorobenzyl)-N-methyl-1,2,4-oxadiazole-3-carboxamide] | 19.9 µM
O=C(NCc1cc(F)c(F)c(F)c1)c1noc(-c2cc(Cl)c(O)c(Cl)c2)n1 [118a, 5-(3,5-dichloro-4-hydroxyphenyl)-N-(3,4,5-trifluorobenzyl)-1,2,4-oxadiazole-3-carboxamide] | 5.67 µM
O=C(c1noc(-c2cc(Cl)c(O)c(Cl)c2)n1)N(CCNCc1ccccc1)Cc1ccccc1 [119a, N-benzyl-N-(2-(benzylamino)ethyl)-5-(3,5-dichloro-4-hydroxyphenyl)-1,2,4-oxadiazole-3-carboxamide] | 24.1 µM
O=C(c1nc(-c2cc(Cl)c(O)c(Cl)c2)no1)N(CCO)Cc1ccccc1 [121a, N-benzyl-3-(3,5-dichloro-4-hydroxyphenyl)-N-(2-hydroxyethyl)-1,2,4-oxadiazole-5-carboxamide] | 19.2 µM
O=C(c1nc(-c2cc(Br)c(O)c(Br)c2)no1)N(CCO)Cc1ccccc1 [122a, N-benzyl-3-(3,5-dibromo-4-hydroxyphenyl)-N-(2-hydroxyethyl)-1,2,4-oxadiazole-5-carboxamide] | 19.8 µM
O=C(NCc1ccc(Cl)c(F)c1)c1nc(-c2cc(Cl)c(O)c(Cl)c2)no1 [123a, N-(4-chloro-3-fluorobenzyl)-3-(3,5-dichloro-4-hydroxyphenyl)-1,2,4-oxadiazole-5-carboxamide] | 16.4 µM
O=C(NCc1ccc(C(F)(F)F)cc1F)c1nc(-c2cc(Cl)c(O)c(Cl)c2)no1 [124a, 3-(3,5-dichloro-4-hydroxyphenyl)-N-(2-fluoro-4-(trifluoromethyl)benzyl)-1,2,4-oxadiazole-5-carboxamide] | 14.6 µM

Same assay, conditions: triazine-containing compounds (Table 8 and 8′), read-out: IC50

Structure (SMILES) | IC50
N#Cc1ccc(COc2ncc(-c3cc(Br)c(O)c(Br)c3)nn2)cc1 [101e, 4-((6-(3,5-dibromo-4-hydroxyphenyl)-1,2,4-triazin-3-yloxy)methyl)benzonitrile] | 3.49 µM
